Measurements published in patent publication US8084469B2, “Substituted piperidines” (Bayer Pharma Aktiengesellschaft, priority 2009, dated 2011).

molecular target: T1, human protease activated receptor 1 (PAR-1) (Homo sapiens, UniProt P25116); assay: Cellular functional in vitro test (aequorin luminescence in recombinant HEK293 PAR-1 test cell); type: cell-based; conditions: PAR-1 test cell (HEK293-derived), PAR-1 agonist at EC50 concentration, aequorin light signal
T1 construct: the cell stably expresses the endogenous human PAR-1 receptor; endogenous in cells; host or cells: HEK293-derived recombinant cell line; only the aequorin reporter is recombinant
T1 sequence (P25116 22-425): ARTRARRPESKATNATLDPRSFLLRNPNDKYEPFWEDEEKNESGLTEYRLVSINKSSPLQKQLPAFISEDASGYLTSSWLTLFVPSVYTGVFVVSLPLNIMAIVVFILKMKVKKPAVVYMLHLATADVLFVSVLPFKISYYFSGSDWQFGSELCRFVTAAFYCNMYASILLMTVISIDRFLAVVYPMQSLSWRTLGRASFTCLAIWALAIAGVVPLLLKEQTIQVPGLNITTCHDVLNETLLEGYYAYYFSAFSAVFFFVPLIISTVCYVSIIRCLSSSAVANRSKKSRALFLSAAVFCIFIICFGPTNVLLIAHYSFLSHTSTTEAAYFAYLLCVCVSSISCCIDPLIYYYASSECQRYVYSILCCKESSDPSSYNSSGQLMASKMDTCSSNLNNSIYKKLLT
Description: Cellular Functional In Vitro Test
A recombinant cell line is used to identify antagonists of the human protease activated receptor 1 (PAR-1) and to quantify the activity of the substances described herein. The cell is originally derived from a human embryonal kidney cell (HEK293; ATCC: American Type Culture Collection, Manassas, Va. 20108, USA). The test cell line constitutively expresses a modified form of the calcium-sensitive photoprotein aequorin which, after reconstitution with the cofactor coelenterazine, emits light when the free calcium concentration in the inner mitochondrial compartment is increased (Rizzuto R, Simpson A W, Brini M, Pozzan T.; Nature 1992, 358, 325-327). Additionally, the cell stably expresses the endogenous human PAR-1 receptor and the endogenous purinergic receptor P2Y2. The resulting PAR-1 test cell responds to stimulation of the endogenous PAR-1 or P2Y2 receptor with an intracellular release of calcium ions, which can be quantified through the resulting aequorin luminescence with a suitable luminometer (Milligan G, Marshall F, Rees S, Trends in Pharmacological Sciences 1996, 17, 235-237).
For the testing of the substance specificity, the effect thereof after activation of the endogenous PAR-1 receptor is compared with the effect after activation of the endogenous purinergic P2Y2 receptor which utilizes the same intracellular signal path.
Test procedure: The cells are plated out two days (48 h) before the test in culture medium (DMEM F12, supplemented with 10% FCS, 2 mM glutamine, 20 mM HEPES, 1.4 mM pyruvate, 0.1 mg/ml gentamycin, 0.15% Na bicarbonate; BioWhittaker Cat.# BE04-687Q; B-4800 Verviers, Belgium) in 384-well microtitre plates and kept in a cell incubator (96% atmospheric humidity, 5% v/v CO2, 37° C.). On the day of the test, the culture medium is replaced by a tyrode solution (in mM: 140 sodium chloride, 5 potassium chloride, 1 magnesium chloride, 2 calcium chloride, 20 glucose, 20 HEPES), which additionally contains the cofactor coelenterazine (25 μM) and glutathione (4 mM), and the microtitre plate is then incubated for a further 3-4 hours. The test substances are then pipetted onto the microtitre plate, and 5 minutes after the transfer of the test substances into the wells of the microtitre plate the plate is transferred into the luminometer, a PAR-1 agonist concentration which corresponds to EC50 is added and the resulting light signal is immediately measured in the luminometer. To distinguish an antagonist substance action from a toxic action, the endogenous purinergic receptor is immediately subsequently activated with agonist (ATP, final concentration 10 μM) and the resulting light signal is measured.

| IC50 | SMILES |
| --- | --- |
| 5.1 nM | CCOc1noc(C2CC(c3ccc(CC(F)(F)F)c(F)c3)CN(C(=O)N3CC[S+]([O-])CC3)C2)n1 (single isomer, unassigned) [Example 80, {3-(3-Ethoxy-1,2,4-oxadiazol-5-yl)-5-[3-fluoro-4-(2,2,2-trifluoroethyl)phenyl]piperidin-1-yl}(1-oxidothiomorpholin-4-yl)methanone] |
| 14.3 nM | O=C(N1CCOCC1)N1CC(c2ccc(C(F)(F)F)cc2)CC(c2nc(NC3CC3)no2)C1 (racemic) [Example 9, {3-[3-(Cyclopropylamino)-1,2,4-oxadiazol-5-yl]-5-[4-(trifluoromethyl)phenyl]piperidin-1-yl}-(morpholin-4-yl)methanone] |
| 6.3 nM | CCOc1noc(C2CC(c3ccc(CC)c(F)c3)CN(C(=O)N3CCS(=O)(=O)CC3)C2)n1 (racemic) [Example 101, (1,1-Dioxidothiomorpholin-4-yl)[3-(3-ethoxy-1,2,4-oxadiazol-5-yl)-5-(4-ethyl-3-fluorophenyl)-piperidin-1-yl]methanone] |
| 64.5 nM | CCOc1noc(C2CC(c3ccc(CC(F)(F)F)cc3)CN(C(=O)N3CC[S+]([O-])CC3)C2)n1 (single isomer, unassigned) [Example 66, {3-(3-Ethoxy-1,2,4-oxadiazol-5-yl)-5-[4-(2,2,2-trifluoroethyl)phenyl]piperidin-1-yl}(1-oxidothio-morpholin-4-yl)methanone] |
| 35.3 nM | CCOc1noc(C2CC(c3ccc(CC)cc3)CN(C(=O)N3CC(O)C3)C2)n1 (racemic) [Example 35, [3-(3-Ethoxy-1,2,4-oxadiazol-5-yl)-5-(4-ethylphenyl)piperidin-1-yl](3-hydroxyazetidin-1-yl)methanone] |
| 21.1 nM | CCOc1noc(C2CC(c3ccc(CC(F)(F)F)cc3)CN(C(=O)N3CCS(=O)(=O)CC3)C2)n1 (single isomer, unassigned) [Example 69, (1,1-Dioxidothiomorpholin-4-yl){3-(3-ethoxy-1,2,4-oxadiazol-5-yl)-5-[4-(2,2,2-trifluoroethyl)-phenyl]piperidin-1-yl}methanone] |
| 1.7 nM | CC(C)Oc1noc(C2CC(c3ccc(OC(F)(F)F)cc3)CN(C(=O)N3CCSCC3)C2)n1 (racemic) [Example 33, {3-(3-Isopropoxy-1,2,4-oxadiazol-5-yl)-5-[4-(trifluoromethoxy)phenyl]piperidin-1-yl}(thiomorpholin-4-yl)methanone] |
| 69.4 nM | CCN(CCO)c1noc(C2CC(c3ccc(C(F)(F)F)cc3)CN(C(=O)N3CCOCC3)C2)n1 (racemic) [Example 16, (3-{3-[Ethyl(2-hydroxyethyl)amino]-1,2,4-oxadiazol-5-yl}-5-[4-(trifluoromethyl)phenyl]piperidin-1-yl)(morpholin-4-yl)methanone] |
| 20.6 nM | CCc1ccc(C2CC(c3nc(OCCOC)no3)CN(C(=O)N3CCS(=O)(=O)CC3)C2)cc1 (single isomer, unassigned) [Example 63, (1,1-Dioxidothiomorpholin-4-yl){3-(4-ethylphenyl)-5-[3-(2-methoxyethoxy)-1,2,4-oxadiazol-5-yl]-piperidin-1-yl}methanone] |
| 8.7 nM | CCN(CC)c1noc(C2CC(c3ccc(C(F)(F)F)cc3)CN(C(=O)N3CCOCC3)C2)n1 (single isomer, unassigned) [Example 6, {3-[3-(Diethylamino)-1,2,4-oxadiazol-5-yl]-5-[4-(trifluoromethyl)phenyl]piperidin-1-yl}-(morpholin-4-yl)methanone] |
| 12 nM | CCOc1noc(C2CC(c3ccc(CC(F)(F)F)cc3)CN(C(=O)N3CCS(=O)(=O)CC3)C2)n1 (racemic) [Example 67, (1,1-Dioxidothiomorpholin-4-yl){3-(3-ethoxy-1,2,4-oxadiazol-5-yl)-5-[4-(2,2,2-trifluoroethyl)-phenyl]piperidin-1-yl}methanone] |
